Laboratory results as given in patent US20260108447A1, “RESIDENT-SKIN-FLORA-IMPROVING AGENT AND EXTERNAL-USE COMPOSITION FOR SKIN” (NIHON SHOKUHIN KAKO CO., LTD., priority 2022, published 2026).

How the values were obtained:
Test in all cases: Change in bacteria count (bacterial turbidity OD660) when the sugar is added to the culture medium
Format in all cases: cell-based
[1] = tested on: Micrococcus luteus (JCM1464); settings: 24 hours; for proliferation of M. luteus, relative value (percentage relative to non-sugar-added group): test example 5, final concentration 0.5 (w/v) %, OD660, FIG. 5
Protocol: (§1) An investigation was conducted in regard to a change in bacteria count when the α-gluco-oligosaccharide or the β-gluco-oligosaccharide prepared as described above was added to a culture medium and culturing was carried out in culturing of the various bacteria indicated in table 3 as resident skin bacteria under respectively suitable culture conditions.
(§2) Specifically, the various bacteria were cultured overnight using respectively suitable culture media to prepare preculture solutions, and the α-gluco-oligosaccharide or the β-gluco-oligosaccharide prepared as described above was added to 3 mL of fresh culture media so as to reach a final concentration of 0.5 (w/v) %, whereupon 0.03 ml of the preculture liquids was mixed thereinto and cultured for 24 hours, and the bacterial turbidity (OD660) after culturing was measured. Additionally, glucose was added as a sugar to a culture medium and similar tests were performed to arrive at a comparative control. The results were expressed as relative values (percentage relative to non-sugar-added group), where 100% indicated the bacterial turbidity when sterilized ultrapure water was added instead of any sugar.
(§3) The effect for promoting proliferation of S. hominis, S. aureus, C. acnes, C. xerosis, or M. luteus was evaluated in the same manner as in test example 1, except that sophorose prepared at high purity as described above was used as the β-gluco-oligosaccharide composed of disaccharides, and the amount of the sophorose added to the culture medium was set to 0.1 (w/v) %, 0.5 (w/v) %, or 1.0 (w/v) % in terms of final concentration.
(§4) The effect for promoting proliferation of S. hominis, S. aureus, C. acnes, C. xerosis, or M. luteus was evaluated in the same manner as in test example 1, except that laminaribiose and gentiobiose prepared at high purity as described above, as well as commercially available cellobiose (Nacalai Tesque, Inc.), were used as the β-gluco-oligosaccharide composed of disaccharides, and the amount of the β-gluco-oligosaccharide added to the culture medium was set to 0.5 (w/v) % in terms of final concentration.

[2] = tested on: Staphylococcus hominis (JCM31912); settings: 24 hours; for effect for promoting proliferation: test example 5, FIG. 5, sentence names no bacterium, taken as S. hominis; for proliferation of S. hominis, relative value (percentage relative to non-sugar-added group): test example 4, OD660, FIG. 4
Protocol: as §1, §2, §3, §4

[3] = tested on: Staphylococcus epidermidis (JCM20345); settings: 24 hours
Protocol: as §1, §2
Specifically, the effect for promoting proliferation of S. epidermidis was evaluated in the same manner as in test example 1, except that sophorose, laminaribiose, or gentiobiose prepared at high purity as described above was used as the sugar to be added to the culture medium, and the amount of the sugar added to the culture medium was set to 0.3 (w/v) % or 0.5 (w/v) % in terms of the final concentration.
The effect for promoting proliferation of S. epidermidis was evaluated in the same manner as in test example 2, except that sophorose prepared at high purity as described above was used as the β-gluco-oligosaccharide composed of disaccharides, and the amount of the sophorose added to the culture medium was set to 0.1 (w/v) % or 1.0 (w/v) % in terms of the final concentration.

[4] = tested on: Staphylococcus aureus (ATCC6538); settings: 24 hours
Protocol: as §1, §2, §3, §4

[5] = tested on: Corynebacterium xerosis (JCM1971); settings: test example 4; at any of 0.1, 0.5, 1.0 (w/v) %, 24 hours; FIG. 4
Protocol: as §1, §2, §3, §4

[6] = tested on: Cutibacterium acnes (JCM6425); settings: test example 4; at any of 0.1, 0.5, 1.0 (w/v) %, 24 hours; FIG. 4
Protocol: as §1, §2, §3, §4

[7] = final concentration 0.5 (w/v) %
[8] = test example 2, high-purity sugar 0.3 (w/v) % or 0.5 (w/v) % final concentration, FIG. 2
[9] = test example 4, at any of 0.1, 0.5, 1.0 (w/v) %, FIG. 4

Molecule	proliferation of M. luteus, relative value (percentage relative to non-sugar-added group) [1]	effect for promoting proliferation [2, 7]	effect for promoting proliferation of S. epidermidis [3, 8]	proliferation of S. aureus, relative value (percentage relative to non-sugar-added group) ([4]; test example 5, final concentration 0.5 (w/v) %, OD660, FIG. 5)	effect for promoting proliferation of S. epidermidis ([3]; test example 3, final concentration 0.1 (w/v) %, FIG. 3)	effect for promoting proliferation of S. epidermidis, compared with 0.5 (w/v) % of test example 2 ([3]; test example 3, final concentration 1.0 (w/v) %, FIG. 3)	effect for promoting proliferation of C. xerosis relative to the control [5]	effect for promoting proliferation of C. acnes relative to the control [6]	effect for promoting proliferation of M. luteus relative to the control [1, 9]	effect for promoting proliferation of S. aureus relative to the control [4, 9]	proliferation of S. hominis, relative value (percentage relative to non-sugar-added group) [2, 7]	proliferation of S. hominis, relative value (percentage relative to non-sugar-added group) ([2]; final concentration 1.0 (w/v) %)
O=C[C@H](O)[C@@H](O)[C@H](O[C@@H]1O[C@H](CO)[C@@H](O)[C@H](O)[C@H]1O)[C@H](O)CO [cellobiose]	111.7%	not confirmed to yield an effect for promoting proliferation	–	–	–	–	–	–	–	–	–	–
OC[C@H]1O[C@@H](O[C@H]2[C@H](O)[C@@H](CO)OC(O)[C@@H]2O)[C@H](O)[C@@H](O)[C@@H]1O (some centres unmarked) [laminaribiose, reference compound]	–	not confirmed to yield an effect for promoting proliferation	did not exhibit an effect for promoting proliferation	108.5%	–	–	–	–	–	–	–	–
O=C[C@H](O[C@@H]1O[C@H](CO)[C@@H](O)[C@H](O)[C@H]1O)[C@@H](O)[C@H](O)[C@H](O)CO [sophorose, 2-O-β-D-glucopyranosyl-D-glucose]	–	–	prominent effect for promoting proliferation	–	exhibit the effect for promoting proliferation	no great difference was observed	no effect for promoting proliferation	no effect for promoting proliferation	no effect for promoting proliferation	no effect for promoting proliferation	118.0%	118.8%
gentiobiose	121.9%	not confirmed to yield an effect for promoting proliferation	did not exhibit an effect for promoting proliferation	–	–	–	–	–	–	–	–	–
